Literature values in patent publication US4259319A, “Antibiotic auromomycin, and process for production thereof” (Kanegafuchi Chemical Industry Company, Limited, priority 1977, dated 1981).

How the values were obtained:
[1] = system: Gram-positive bacteria; settings: comparison substance
[2] = comparison substance

In the case of neocarcinostatin, the Antibacterial activity [1] is given as “inhibiting only Grampositive bacteria” and the isoelectric point [2] is given as 3.5 pH.
